Data as given in ChEMBL document CHEMBL2407088, “Frenolicins C-G, pyranonaphthoquinones from Streptomyces sp. RM-4-15” (J Nat Prod, 2013).

Each molecule was assayed on A549 (assay: Cytotoxicity against human A549 cells after 2 days by resazurin reduction assay). Settings: A549, 48 h.
In the case of `CCC[C@H]1O[C@@H]2CC(=O)O[C@@H]2C2=C1C(=O)c1c(O)cccc1C2=O` [FRENOLICIN B], the IC50 is reported as 0.28 µM. With `CCC[C@H]1O[C@H](CC(=O)O)C[C@@]2(O)C(=O)c3cccc(O)c3C(=O)[C@@]12O` the IC50 was greater than 80 µM. `CCC[C@H]1O[C@H](CC(=O)O)C[C@]23O[C@]12C(=O)c1c(O)cccc1[C@@H]3O` showed an IC50 greater than 80 µM. `CCC[C@H]1O[C@H](CC(=O)O)C[C@]2(SC[C@H](NC(C)=O)C(=O)O)C(=O)c3cccc(O)c3C(=O)[C@@]12O` showed an IC50 greater than 80 µM. Molecule `CCC[C@H]1O[C@H](CC(=O)OC)[C@H](O)C2=C1C(=O)c1c(O)cccc1C2=O` has an IC50 of 0.35 µM. `CCC[C@H]1O[C@H](CC(=O)O)CC2=C1C(=O)c1c(O)cccc1C2=O` [DEOXYFRENOLICIN] was tested, and the IC50 was 1.07 µM. In the case of `CCC[C@H]1O[C@H](CC(=O)O)C[C@@H]2C(=O)c3cccc(O)c3C(=O)[C@]21O`, the IC50 is reported as greater than 80 µM. With `CCC[C@H]1O[C@H](CC(=O)O)C[C@]2(O)C(=O)c3cccc(O)c3C(=O)[C@@]12O` the IC50 was greater than 80 µM. `CCC[C@H]1O[C@H](CC(=O)O)C[C@]23O[C@]12C(=O)c1c(O)cccc1C3=O` [FRENOLICIN] was tested, and the IC50 was 5.77 µM.
